# Measurements reported in patent US5487990A (The General Hospital Corporation, priority 1992, dated 1996).
# Entries after “also recorded” stand apart in the source; their conditions may differ. Read-outs that look alike come from different tables or passages of the source.
# Tests used:
# [1] = target: T1, Acetyl-CoA Hydrolase from S. cerevisiae (Saccharomyces cerevisiae, UniProt P32316); experiment: biochemical; settings: for remaining activity at 100 µM / remaining activity at 1000 µM / remaining activity at 5000 µM / remaining activity at 10000 µM: pH 7.4, read-out: Enzyme Activity (%); for Enzyme Activity (%): 100 mM potassium phosphate, pH 7.4, None = 100
# T1 sequence (P32316 1-526): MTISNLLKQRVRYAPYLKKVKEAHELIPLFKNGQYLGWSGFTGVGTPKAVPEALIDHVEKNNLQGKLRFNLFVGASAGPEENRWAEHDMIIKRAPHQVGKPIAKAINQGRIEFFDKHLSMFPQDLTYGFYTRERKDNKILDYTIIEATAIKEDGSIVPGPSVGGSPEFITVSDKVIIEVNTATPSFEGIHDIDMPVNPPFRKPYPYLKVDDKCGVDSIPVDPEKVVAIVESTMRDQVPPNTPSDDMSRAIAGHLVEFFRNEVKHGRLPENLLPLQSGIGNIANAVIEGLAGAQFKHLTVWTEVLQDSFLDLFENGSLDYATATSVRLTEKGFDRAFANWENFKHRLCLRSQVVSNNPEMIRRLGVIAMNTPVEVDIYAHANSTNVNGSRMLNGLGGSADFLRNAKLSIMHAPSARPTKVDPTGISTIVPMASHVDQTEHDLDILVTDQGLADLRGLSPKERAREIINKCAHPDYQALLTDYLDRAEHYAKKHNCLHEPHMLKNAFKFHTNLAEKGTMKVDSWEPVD
# Experimental: The assay mixture was incubated at 30° C. for 0.30 s, 1 min, 2 min, 3 min, 4 min, and 5 min. The reaction was stopped by adding 20 μl of 10 M acetic acid. The sample was evaporated by N2 stream at 30° C. to dryness in a fume hood, dissolved in 100 μl H2 O, and transferred to a scintillation vial containing 10 ml Ready-Solv EP scintillation cocktail. The sample tube was washed twice with 100 μl H2 O, each wash was transferred to the scintillation vial, and the radioactivity was determined by scintillation counting for 1 min.
# nucleotides and divalent cations in 100 mM potassium phosphate, pH 7.4.
# The enzyme activity was determined under standard radioactive assay
# conditions using ACTH (1-24) (N = 3), as described in the Examples.
# acylCoA in 100 mM phosphate buffer, pH 7.4.
# [2] = target: T1, Acetyl-CoA Hydrolase from S. cerevisiae; experiment: Substrate specificity, colorimetric assay (DNTB, A412); format: biochemical; settings: read-out: Relative Activity (%)
# [3] = target: T1, Acetyl-CoA Hydrolase from S. cerevisiae; experiment: biochemical; format: biochemical
# [4] = target: Human ACTH (1-24) (human) (UniProt P01189)
# [5] = target: T2, soluble cytosolic acetyl-CoA hydrolase found in rat liver (Rattus norvegicus, UniProt Q99NB7); settings: rat liver cytoplasmic, cold-labile enzyme; cited from earlier work
# T2 construct: host or cells: rat liver cytoplasm (Prass et al. 1980; Soling et al. 1985)
# [6] = tested on: mitochondrial acetyl-CoA hydrolase; settings: cited from earlier work
# [7] = 0.25 h, read-out: Enzyme Activity (%)
# T2 sequence (Q99NB7 whole entry): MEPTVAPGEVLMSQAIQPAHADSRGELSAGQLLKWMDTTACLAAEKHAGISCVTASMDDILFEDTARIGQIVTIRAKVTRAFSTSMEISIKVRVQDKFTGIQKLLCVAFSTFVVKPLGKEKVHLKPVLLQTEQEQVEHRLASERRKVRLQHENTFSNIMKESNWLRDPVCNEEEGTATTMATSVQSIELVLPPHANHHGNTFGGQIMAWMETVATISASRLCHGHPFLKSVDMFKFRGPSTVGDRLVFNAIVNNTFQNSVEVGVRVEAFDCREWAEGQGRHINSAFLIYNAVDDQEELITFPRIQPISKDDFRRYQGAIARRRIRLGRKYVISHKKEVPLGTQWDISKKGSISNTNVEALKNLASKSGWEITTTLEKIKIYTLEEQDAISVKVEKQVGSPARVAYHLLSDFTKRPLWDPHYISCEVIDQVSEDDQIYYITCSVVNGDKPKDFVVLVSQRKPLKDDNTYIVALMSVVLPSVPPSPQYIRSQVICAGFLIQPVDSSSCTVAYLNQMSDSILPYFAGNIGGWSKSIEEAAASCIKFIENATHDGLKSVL
compound,measurement,setting,value
CCC(=O)SCCNC(=O)CCNC(=O)[C@H](O)C(C)(C)COP(=O)(O)OP(=O)(O)OC[C@H]1O[C@@H](n2cnc3c(N)ncnc32)[C@H](O)[C@@H]1OP(=O)(O)O [Propionyl-CoA],remaining activity at 100 µM,[1],92%
same,remaining activity at 1000 µM,[1],89%
same,remaining activity at 5000 µM,[1],72%
same,activity at 250 µM,[2],9%
"C[S+](C)Cc1cc([N+](=O)[O-])ccc1O.[Br-] [HNBS(CH3)2 --Br, dimethyl-(2-hydroxy-5-nitrobenzyl)sulfonium bromide]",inactivation by chemical modification (in words),[3],partially inactivated
same,remaining activity at 1000 µM,[3]; [7],84%
same,remaining activity at 10000 µM,[3]; [7],71%
CCCCCCCCCCCCCC(=O)SCCNC(=O)CCNC(=O)[C@H](O)C(C)(C)COP(=O)(O)OP(=O)(O)OC[C@H]1O[C@@H](n2cnc3c(N)ncnc32)[C@H](O)[C@@H]1OP(=O)(O)O [Myristoyl-CoA],remaining activity at 100 µM,[1],93%
same,remaining activity at 1000 µM,[1],83%
same,remaining activity at 5000 µM,[1],52%
same,activity at 250 µM,[2],3%
[Cl][Mn][Cl] [MnCl2],Enzyme Activity (%),[1]; addition 1 mM,84%
same,Enzyme Activity (%),[1]; addition 10 mM,64%
yeast N-alpha-acetyltransferase (enzyme),"transfer of [3H] acetyl group from [3H] acetyl-CoA to ACTH (1-24), units",[4],63300 units
"O=C1CCC(=O)N1Br [NBS, N-bromosuccinimide]",inactivation of the enzyme (in words),[3],complete inactivation
same,remaining activity at 500 µM,[3]; [7],30%
same,remaining activity at 5000 µM,[3]; [7],2%
same,inhibition at 500 µM,"[3]; 0.25 h, read-out: inactivation of the enzyme",70%
Nc1ncnc2c1ncn2[C@@H]1O[C@H](COP(=O)(O)OP(=O)(O)O)[C@@H](O)[C@H]1O [ADP],effect on yeast enzyme activity (in words),[1],not affected
same,remaining activity at 100 µM,[1],98%
same,remaining activity at 1000 µM,[1],94%
same,remaining activity at 10000 µM,[1],91%
same,effect on enzyme (in words),[5],inhibited
same,effect on enzyme (in words),[6],not inhibited; also recorded: not affected
O=S(=O)([O-])[O-].[Zn+2] [ZnSO4],Enzyme Activity (%),[1]; addition 1 mM,88%
same,Enzyme Activity (%),[1]; addition 10 mM,25%
NC(=O)C1=CN([C@@H]2O[C@H](COP(=O)(O)OP(=O)(O)OC[C@H]3O[C@@H](n4cnc5c(N)ncnc54)[C@H](O)[C@@H]3O)[C@@H](O)[C@H]2O)C=CC1 [βNADH],effect on enzyme activity (in words),[1],appreciably decreased enzyme activity
same,effect on yeast enzyme activity (in words),[1],inhibited
same,remaining activity at 100 µM,[1],83%
same,remaining activity at 1000 µM,[1],69%
same,remaining activity at 10000 µM,[1],46%
same,effect on enzyme (in words),[6],inhibited
O=C1CCC(=O)O1 [Succinic anhydride],effect on enzyme activity (in words),[3],no effect; also recorded: partial inactivation
same,remaining activity at 1000 µM,[3]; [7],95%
same,remaining activity at 10000 µM,[3]; [7],79%
NC(=O)c1ccc[n+]([C@@H]2O[C@H](COP(=O)([O-])OP(=O)(O)OC[C@H]3O[C@@H](n4cnc5c(N)ncnc54)[C@H](O)[C@@H]3O)[C@@H](O)[C@H]2O)c1 [βNAD],remaining activity at 100 µM,[1],100%
same,remaining activity at 1000 µM,[1],98%
same,remaining activity at 10000 µM,[1],95%
O=S(=O)([O-])[O-].[Cu+2] [CuSO4],Enzyme Activity (%),[1]; addition 1 mM,94%
same,Enzyme Activity (%),[1]; addition 10 mM,89%
O[C@@H](CS)[C@@H](O)CS (relative stereo) [DTT],inactivation by chemical modification (in words),[3],did not affect enzyme activity
same,remaining activity at 10000 µM,[3]; [7],104%
[Cl][Cd][Cl] [CdCl2],Enzyme Activity (%),[1]; addition 1 mM,91%
same,Enzyme Activity (%),[1]; addition 10 mM,48%
Nc1ncnc2c1ncn2[C@@H]1O[C@H](COP(=O)(O)OP(=O)(O)OP(=O)(O)O)[C@@H](O)[C@H]1O [ATP],effect on yeast enzyme activity (in words),[1],not affected
same,remaining activity at 100 µM,[1],101%
same,remaining activity at 1000 µM,[1],99%
same,remaining activity at 10000 µM,[1],96%
same,effect on enzyme (in words),[6],not activated; also recorded: not affected
[Zn+2] [Zn^2+],effect on yeast enzyme activity (in words),[1]; concentration not given,most potent inhibitor
Nc1nc2c(ncn2[C@@H]2O[C@H](COP(=O)(O)OP(=O)(O)O)[C@@H](O)[C@H]2O)c(=O)[nH]1 [GDP],effect on enzyme (in words),[5],inhibited
same,effect on enzyme (in words),[6],not inhibited
CC(C)(COP(=O)(O)OP(=O)(O)OC[C@H]1O[C@@H](n2cnc3c(N)ncnc32)[C@H](O)[C@@H]1OP(=O)(O)O)[C@@H](O)C(=O)NCCC(=O)NCCSC(=O)CCC(=O)O [Succinyl-CoA],remaining activity at 100 µM,[1],92%
same,remaining activity at 1000 µM,[1],79%
same,remaining activity at 5000 µM,[1],56%
same,activity at 250 µM,[2],8%
